{"source": "patent US20080312277A1", "about": "“Gpr41 and Modulators Thereof for the Treatment of Insulin-Related Disorders” (priority 2004, published 2008)", "key": {"male C57b1/6 mice": {"tested_on": "male C57b1/6 mice", "test": "Oral glucose tolerance test (oGTT)", "type": "in vivo", "details": "p.o. 30 min before oral dextrose 3 g/kg, FIG. 8", "protocol": "For the oGTT, male C57b1/6 mice were fasted for about 18 hours and randomly grouped to receive the compounds indicated in FIG. 8 at the indicated doses, or vehicle (PET which contains 80% PEG, 10% Tween80, and 10% Ethanol). The indicated compound(s) were delivered orally via a gavage needle (p.o. volume at 100 μl). Thirty minutes after administration of the compound(s) or vehicle, mice were administered orally with dextrose at 3 g/kg dose. Levels of blood glucose were determined at several time points using Glucometer Elite XL (Bayer)."}, "GPR41": {"target": "T1, GPR41 (Homo sapiens, UniProt O14843)", "T1 sequence (O14843 1-346)": "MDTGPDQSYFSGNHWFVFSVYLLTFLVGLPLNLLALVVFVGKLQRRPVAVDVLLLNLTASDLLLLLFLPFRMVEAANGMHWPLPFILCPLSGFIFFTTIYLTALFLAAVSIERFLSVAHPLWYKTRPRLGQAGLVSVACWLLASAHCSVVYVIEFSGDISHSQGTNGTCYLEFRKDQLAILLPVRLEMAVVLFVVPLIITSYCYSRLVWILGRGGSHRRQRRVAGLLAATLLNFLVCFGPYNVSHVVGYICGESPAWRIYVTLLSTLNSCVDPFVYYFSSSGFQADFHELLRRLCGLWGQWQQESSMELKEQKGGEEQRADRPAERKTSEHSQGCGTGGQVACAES", "details": "Brown et al., J. Biol. Chem. 278:11312-11319 (2003); cited from earlier work"}}}
{"smiles": "CC1=C(C(=O)Nc2ccccc2C)C(c2ccoc2)C2=C(CCCC2=O)N1", "note": "(stereo not drawn) [Compound 4, 4-Furan-3-yl-2-methyl-5-oxo-1,4,5,6,7,8-hexahydro-quinoline-3-carboxylic acid o-tolylamide]", "values": [{"measurement": "effect on the glycemic lowering effect of Compound B111 in the oGTT (plasma glucose)", "setting": "male C57b1/6 mice; used in conjunction with Compound B111", "result": "reversed the glycemic lowering effect of Compound B111"}]}
{"smiles": "CC(C)c1noc(C2CCN(c3ncnc(Nc4ccc(S(C)(=O)=O)cc4F)c3[N+](=O)[O-])CC2)n1", "note": "[Compound B111, (2-Fluoro-4-methanesulfonyl-phenyl)-{6-[4-(3-isopropyl-[1,2,4]oxadiazol-5-yl)-piperidin-1-yl]-5-nitro-pyrimidin-4-yl}-amine]", "values": [{"measurement": "glycemic effect in the oGTT", "setting": "male C57b1/6 mice; used alone", "result": "glycemic lowering effect"}]}
{"smiles": "CCC(=O)O", "note": "[propionate]", "values": [{"measurement": "activation of GPR41", "setting": "GPR41", "result": "activated"}]}
